The values that follow come from the supplement of paper PMC10307832.

Common to all, as to assay: relative viability (nuclei count vs DMSO), 5 days (fraction); higher = more cells survive
Compound in assay [1]: COc1cc2c(Oc3ccc4[nH]c(C)cc4c3F)ncnc2cc1OCCCN1CCCC1 [Cediranib] + CS(=O)(=O)CCNCc1ccc(-c2ccc3ncnc(Nc4ccc(OCc5cccc(F)c5)c(Cl)c4)c3c2)o1 [Lapatinib] (partner 2 µM)
In outline: (§1)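 Dosing by pin tool came one day after lung cancer cell lines were seeded in 1536-well plates, using either one drug or a fixed anchor-drug dose plus five library-drug doses (not always all listed) in √10 steps. After 5 days, nuclei were counted on 4× images. Relative viability is treated-well nuclei count divided by vehicle-well nuclei count, and values are medians of duplicate plates.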

Compound in assay [2]: O=C(C[C@H]1NCCC[C@@H]1O)Cn1cnc2cc(Br)c(Cl)cc2c1=O (racemic) [Halofuginone] + CC(C)C[C@H](NC(=O)[C@H](Cc1ccccc1)NC(=O)c1cnccn1)B(O)O [Bortezomib] (partner 0.002 µM)
The gist of the method: as §1

Compound in assay [3]: COc1cc2c(Oc3ccc4[nH]c(C)cc4c3F)ncnc2cc1OCCCN1CCCC1 [Cediranib] + Cc1cc(Nc2cc(N3CCN(C)CC3)nc(Sc3ccc(NC(=O)C4CC4)cc3)n2)n[nH]1 [Tozasertib] (partner 0.1 µM)
In outline: as §1

Compound in assay [4]: O=C(C[C@H]1NCCC[C@@H]1O)Cn1cnc2cc(Br)c(Cl)cc2c1=O (racemic) [Halofuginone] + C[C@@H](Oc1cc(-c2cnn(C3CCNCC3)c2)cnc1N)c1c(Cl)ccc(F)c1Cl [Crizotinib] (partner 1 µM)
In outline: as §1

UMC-11: the relative viability was 1.07 in assay [1] (first compound 0.04 µM); 0.48 in assay [1] (first compound 0.1265 µM); 0.938 in assay [1] (first compound 0.4 µM); 0.525 in assay [1] (first compound 1.265 µM); 0.963 in assay [1] (first compound 4 µM); 0.683 in assay [2] (first compound 0.001 µM). In addition, the relative viability in assay [2] (first compound 0.003162 µM) stood at 0.775; in assay [2] (first compound 0.01 µM), 0.684; in assay [2] (first compound 0.03162 µM), 0.689; in assay [2] (first compound 0.1 µM), 0.645; in assay [3] (first compound 0.04 µM), 0.213; in assay [3] (first compound 0.4 µM), 0.201. Further, the relative viability turned out to be 0.2 in assay [3] (first compound 4 µM); 0.66 in assay [4] (first compound 0.001 µM); 0.558 in assay [4] (first compound 0.003162 µM); 0.575 in assay [4] (first compound 0.01 µM); 0.534 in assay [4] (first compound 0.03162 µM); 0.215 in assay [4] (first compound 0.1 µM).
